Assay results: patent US8153581B2, “Process for producing an injectable medicament preparation” (KTB Tumorforschungs GmbH, priority 1999, dated 2012)
Like-named read-outs stand apart in the source and are kept apart here.

Experiments:
albumin [1] = target: T1, albumin (Homo sapiens, UniProt P02768); conditions: 37° C.
Description: In this experiment, the plasma sample was separated, after the incubation had taken place, on a POROS®-20 anion exchange column (the proteins were detected at 254 nm while the anthracycline was detected by fluorescence).
1.4 mg of 2 (Mr 1374) are dissolved, at room temperature, in 1.0 ml of phosphate buffer (0.15 M NaCl, 0.004 M sodium phosphate, pH 6.5) (1000 μm solution).

[2] = RENCA model, body weight change; type: in vivo, Balc/c mice; conditions: i.v. on d 10, 13, 17 and 20; approximately equitoxic doses
Text: (§1) The biological data listed below clarify the in vivo activity of DOXO-HYD as compared with that of free doxorubicin: in what is termed the RENCA (renal cell carcinoma)-model, doxorubicin and DOXO-HYD were compared with each other, at approximately equitoxic doses, as regards their antitumour activity (intravenous therapy 10 days after injecting about 1 million kidney carcinoma cells into the left kidney).
(§2) Animals: Balc/c mice, female; Tumour: RENCA, renal cell carcinoma
(§3) Therapy: Intravenous (i.v.) on day (d) 10, 13, 17 and 20, end of experiment on d24

[3] = tested on: RENCA, renal cell carcinoma; assay: RENCA (renal cell carcinoma) model, antitumour activity; type: in vivo, Balc/c mice
Text: as §1, §2, §3

albumin [4] = target: T1, albumin; assay: Incubation with human plasma, gel filtration chromatography (Superdex 200); type: in vitro ADME; design: with 1.0 ml of human plasma; from tissue; host or cells: human blood plasma; conditions: 250 μl of 100 μM solution with 1.0 ml human plasma, 5 minutes
[5] = as compared with the control group and the doxorubicin-treated group, 4 × 20 mmol/kg i.v.

T1 sequence (P02768 25-609): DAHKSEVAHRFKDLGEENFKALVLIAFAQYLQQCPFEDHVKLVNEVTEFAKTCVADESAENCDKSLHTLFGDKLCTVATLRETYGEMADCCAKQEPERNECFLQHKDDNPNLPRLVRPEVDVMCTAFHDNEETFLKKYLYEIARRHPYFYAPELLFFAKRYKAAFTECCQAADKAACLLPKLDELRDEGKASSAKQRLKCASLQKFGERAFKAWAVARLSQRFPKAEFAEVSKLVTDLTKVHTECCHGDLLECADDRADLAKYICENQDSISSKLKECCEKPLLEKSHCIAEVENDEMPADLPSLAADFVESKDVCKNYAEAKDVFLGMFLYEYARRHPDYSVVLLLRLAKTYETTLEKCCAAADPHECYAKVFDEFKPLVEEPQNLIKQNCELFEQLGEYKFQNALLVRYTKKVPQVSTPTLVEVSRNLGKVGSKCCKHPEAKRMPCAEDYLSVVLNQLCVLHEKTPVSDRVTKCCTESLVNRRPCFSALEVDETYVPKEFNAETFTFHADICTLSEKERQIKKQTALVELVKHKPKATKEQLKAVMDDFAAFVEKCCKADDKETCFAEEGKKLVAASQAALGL

COc1cccc2c1C(=O)c1c(O)c3c(c(O)c1C2=O)C[C@@](O)(C(CO)=NNC(=O)CCCCCN1C(=O)C=CC1=O)C[C@@H]3O[C@H]1C[C@H](N)[C@H](O)[C@H](C)O1 [DOXO-EMCH, 6-maleimidocaproic acid hydrazone derivative of doxorubicin]
binding to albumin in human plasma (albumin [1]; 250μ of 2000 μM solution with 1.0 ml human plasma, 30 seconds): majority of the DOXO-EMCH is bound to albumin

COc1cccc2c1C(=O)c1c(O)c3c(c(O)c1C2=O)C[C@@](O)(C(=O)CO)C[C@@H]3O[C@H]1C[C@H](N)[C@H](O)[C@H](C)O1 [Doxorubicin, doxorubicin, reference compound]
Average decrease in body weight (%) d 1-24 [2]: −15%

COc1cccc2c1C(=O)c1c(O)c3c(c(O)c1C2=O)C[C@@](O)(/C(CO)=N/NC(=O)Cc1ccc(N2C(=O)C=CC2=O)cc1)C[C@@H]3OC1CC(C)C(O)C(N)C1.Cl (some centres unmarked) [DOXO-HYD]
Average decrease in body weight (%) d 1-24 [2]: −15%
covalent binding to albumin in human blood plasma (albumin [1]; human blood plasma, 5 minutes of incubation): most of the DOXO-HYD is covalently bonded to the albumin
antitumour activity ([3]; RENCA model, i.v. d 10, 13, 17, 20, 4 × 20 mmol/kg, end d24): very good antitumour activity
kidney tumour volume [3, 5]: marked reduction
number of lung metastases [3, 5]: marked reduction

O=C(O)c1cc(N2C(=O)C=CC2=O)ccc1-c1c2ccc(=O)cc-2oc2cc(O)ccc12 [fluoresceinmaleimide]
binding to albumin in human plasma (albumin [4]): majority of the fluoresceinmaleimide is bound to albumin
